# Patent publication US20160251725A1, “METHOD FOR PREDICTING CLINICAL TOXICITY AND OUTCOME” (AGENCY FOR SCIENCE, TECHNOLOGY AND RESEARCH, priority 2013, published 2016)
# Legend:
# [1] = tested on: mRCC patients; assay: Tumor response to sunitinib (RECIST version 1.1), clinical benefit / primary resistance; type: in vivo, human
# Procedure: (§1) Twelve patients in this study received a starting dose of 50 mg daily. Six patients started with 25 mg daily due to advanced age or patients' aversion to expected toxicities.
# (§2) Patient characteristics were also collected including age, gender, ethnicity, body weight and height, and Eastern Cooperative Oncology Group (ECOG) performance status. Memorial Sloan-Kettering Cancer Center (MSKCC) prognostic score was calculated for each patient with available data. All the collected data were de-identified by a third party before being used in statistical analysis. The follow-up period ended at the end of April, 2014.
# (§3) Genotype associations with toxicity events or responsive tumor were first analyzed using univariate logistic regression. Genotypes generating P<0.20 were further analyzed using multivariate logistic regression including patient age, gender, baseline ECOG status and starting dose as covariates. Progression-free survival and overall survival were estimated by means of Kaplan-Meier method, while the associations of genotypes and patient characteristics with PFS and OS were analyzed using two-tailed log rank test. The effects of genotypes on the progression-free survival and overall survival were then evaluated using multivariate Cox regression model by including genotypes and patient characteristics with P<0.05 in univariate analysis. […] In all analyses, missing data were kept missing except for baseline ECOG status, which was replaced with the median value. As this was designed as a validation study of previously observed correlations rather than an exploratory evaluation, multiple testing correction was not done.
# [2] = tested on: mRCC patients; assay: Sunitinib toxicities in mRCC patients (CTCAE version 3.0), association with patient factors and genotypes; type: in vivo, human
# Procedure: as §1, §2
# The toxicities analyzed included leucopenia, neutropenia, thrombocytopenia, diarrhea, hand-foot syndrome and early toxicity-necessitated treatment termination. […] Early toxicity-necessitated treatment termination was defined as interruption of the first or second treatment cycle consented by the patient and the physician based on recognition of intolerable or life-threatening toxicities without evidence of progressive disease and failure to resume treatment as far as the patient was followed. For patients experiencing any toxicity grade≧2, cycle interruptions were frequently required; in such cases, a resumed treatment with 25% dose reduction would be applied for safety and life quality considerations.
# as §3
# [3] = ABCB1 haplotype TTT/TTT vs Other
# [4] = ABCB1 2677 TT + AT + GT vs Other
smiles,measurement,setting,value
CCN(CC)CCNC(=O)c1c(C)[nH]c(/C=C2\C(=O)Nc3ccc(F)cc32)c1C [sunitinib],Clinical benefit prevalence,[1]; ABCB1 2677 G/TA Other,55/79
same,Clinical benefit prevalence,[1]; ABCB1 2677 G/TA TT,4/11
same,Clinical benefit OR multivariate,[1]; ABCB1 2677 TT vs Other,0.1
same,Clinical benefit OR univariate,[1]; ABCB1 2677 TT vs Other,0.3
same,Clinical benefit prevalence,[1]; ABCB1 3435 C/T CC + CT,54/78
same,Clinical benefit prevalence,[1]; ABCB1 3435 C/T TT,5/12
same,Clinical benefit OR multivariate,[1]; ABCB1 3435 TT vs CC + CT,0.2
same,Clinical benefit OR univariate,[1]; ABCB1 3435 TT vs CC + CT,0.3
same,Clinical benefit prevalence,[1]; ABCB1 haplotype Other,57/82
same,Clinical benefit prevalence,[1]; ABCB1 haplotype TTT/TTT,2/8
same,Clinical benefit OR multivariate,[1]; [3],0.1
same,Clinical benefit OR univariate,[1]; [3],0.2
same,Clinical benefit OR univariate,[1]; Age,1.0
same,Clinical benefit prevalence,[1]; Baseline ECOG 0,20/25
same,Clinical benefit prevalence,[1]; Baseline ECOG 1,31/49
same,Clinical benefit OR univariate,[1]; Baseline ECOG 1 vs 0,0.4
same,Clinical benefit prevalence,[1]; Baseline ECOG 2,5/11
same,Clinical benefit OR univariate,[1]; Baseline ECOG 2 vs 0,0.2
same,Clinical benefit prevalence,[1]; Baseline ECOG 3,3/5
same,Clinical benefit OR univariate,[1]; Baseline ECOG 3 vs 0,0.4
same,Clinical benefit OR univariate,[1]; Female vs Male,1.2
same,Clinical benefit prevalence,[1]; Gender Female,13/19
same,Clinical benefit prevalence,[1]; Gender Male,46/71
same,Clinical benefit prevalence,[1]; Starting dose 37.5 mg,49/75
same,Clinical benefit prevalence,[1]; Starting dose 50 mg,9/11
same,Clinical benefit OR univariate,[1]; Starting dose 37.5 vs ≦37.5 mg,5.7
same,Clinical benefit prevalence,[1]; Starting dose ≦37.5 mg,1/4
same,Clinical benefit prevalence (cases with PR or SD as best response/total in group),[1]; all patients (n = 90),59/90
same,Decrease of the risk of diarrhea,[2]; ABCB1 1236 T allele,25 fold
same,Decrease of the risk of early toxicity-necessitated treatment termination,[2]; ABCB1 1236 T allele,10 fold
same,Decrease of the risk of neutropenia,[2]; ABCB1 1236 T allele,3 fold
same,Diarrhea prevalence,[2]; ABCB1 1236 T/C CC,7/9
same,Neutropenia prevalence,[2]; ABCB1 1236 T/C CC + CT,27/52
same,Toxicity-necessitated treatment termination prevalence,[2]; ABCB1 1236 T/C CC + CT,10/53
same,Neutropenia prevalence,[2]; ABCB1 1236 T/C TT,11/32
same,Toxicity-necessitated treatment termination prevalence,[2]; ABCB1 1236 T/C TT,2/30
same,Diarrhea prevalence,[2]; ABCB1 1236 T/C TT + CT,13/82
same,Diarrhea OR multivariate,[2]; ABCB1 1236 TT + CT vs CC,0.04
same,Diarrhea OR univariate,[2]; ABCB1 1236 TT + CT vs CC,0.1
same,Neutropenia OR multivariate,[2]; ABCB1 1236 TT vs CC + CT,0.3
same,Neutropenia OR univariate,[2]; ABCB1 1236 TT vs CC + CT,0.5
same,Toxicity-necessitated treatment termination OR multivariate,[2]; ABCB1 1236 TT vs CC + CT,0.1
same,Toxicity-necessitated treatment termination OR univariate,[2]; ABCB1 1236 TT vs CC + CT,0.3
same,Neutropenia prevalence,[2]; ABCB1 2677 G/TA Other,20/35
same,Neutropenia prevalence,[2]; ABCB1 2677 G/TA TT + AT + GT,20/53
same,Decrease of the risk of neutropenia,[2]; ABCB1 2677 T allele,3 fold
same,Neutropenia OR multivariate,[2]; [4],0.4
same,Neutropenia OR univariate,[2]; [4],0.5
same,Decrease of the risk of neutropenia,"[2]; ABCB1 3435, 1236, 2677 TTT haplotype",10 fold
same,Neutropenia prevalence,[2]; ABCB1 3435 C/T CC + CT,38/75
same,Neutropenia prevalence,[2]; ABCB1 3435 C/T TT,1/12
same,Decrease of the risk of diarrhea,[2]; ABCB1 3435 T allele,3 fold
same,Decrease of the risk of neutropenia,[2]; ABCB1 3435 T allele,10 fold
same,Diarrhea prevalence,[2]; ABCB1 3435 T/C CC,11/34
same,Diarrhea prevalence,[2]; ABCB1 3435 T/C TT + CT,9/60
same,Diarrhea OR multivariate,[2]; ABCB1 3435 TT + CT vs CC,0.3
same,Diarrhea OR univariate,[2]; ABCB1 3435 TT + CT vs CC,0.4
same,Neutropenia OR multivariate,[2]; ABCB1 3435 TT vs CC + CT,0.1
same,Neutropenia OR univariate,[2]; ABCB1 3435 TT vs CC + CT,0.1
same,Neutropenia prevalence,[2]; ABCB1 haplotype Other,38/79
same,Neutropenia prevalence,[2]; ABCB1 haplotype TTT/TTT,1/8
same,Neutropenia OR multivariate,[2]; [3],0.1
same,Neutropenia OR univariate,[2]; [3],0.2
same,Decrease of the risk of neutropenia,[2]; ABCG2 421 A allele,3 fold
same,Neutropenia OR multivariate,[2]; ABCG2 421 AA vs CC + AC,0.3
same,Neutropenia OR univariate,[2]; ABCG2 421 AA vs CC + AC,0.5
same,Neutropenia prevalence,[2]; ABCG2 421 C/A AA,16/44
same,Neutropenia prevalence,[2]; ABCG2 421 C/A CC + AC,23/42
same,Diarrhea OR univariate,[2]; Age,1.0
same,Leucopenia OR univariate,[2]; Age,1.0
same,Neutropenia OR univariate,[2]; Age,1.0
same,Toxicity-necessitated treatment termination OR univariate,[2]; Age,1.1
same,Diarrhea prevalence,[2]; Baseline ECOG 0,6/27
same,Leucopenia prevalence,[2]; Baseline ECOG 0,1/25
same,Neutropenia prevalence,[2]; Baseline ECOG 0,13/25
same,Toxicity-necessitated treatment termination prevalence,[2]; Baseline ECOG 0,2/26
same,Diarrhea prevalence,[2]; Baseline ECOG 1,9/50
same,Leucopenia prevalence,[2]; Baseline ECOG 1,9/44
same,Neutropenia prevalence,[2]; Baseline ECOG 1,22/46
same,Toxicity-necessitated treatment termination prevalence,[2]; Baseline ECOG 1,7/44
same,Diarrhea OR univariate,[2]; Baseline ECOG 1 vs 0,0.8
same,Leucopenia OR univariate,[2]; Baseline ECOG 1 vs 0,6.2
same,Neutropenia OR univariate,[2]; Baseline ECOG 1 vs 0,0.9
same,Toxicity-necessitated treatment termination OR univariate,[2]; Baseline ECOG 1 vs 0,2.3
same,Diarrhea prevalence,[2]; Baseline ECOG 2,4/12
same,Leucopenia prevalence,[2]; Baseline ECOG 2,1/12
same,Neutropenia prevalence,[2]; Baseline ECOG 2,5/12
same,Toxicity-necessitated treatment termination prevalence,[2]; Baseline ECOG 2,2/12
same,Diarrhea OR univariate,[2]; Baseline ECOG 2 vs 0,1.8
same,Leucopenia OR univariate,[2]; Baseline ECOG 2 vs 0,2.2
same,Neutropenia OR univariate,[2]; Baseline ECOG 2 vs 0,0.7
same,Toxicity-necessitated treatment termination OR univariate,[2]; Baseline ECOG 2 vs 0,2.4
same,Diarrhea prevalence,[2]; Baseline ECOG 3,1/6
same,Leucopenia prevalence,[2]; Baseline ECOG 3,0/4
same,Neutropenia prevalence,[2]; Baseline ECOG 3,0/5
same,Toxicity-necessitated treatment termination prevalence,[2]; Baseline ECOG 3,2/5
same,Diarrhea OR univariate,[2]; Baseline ECOG 3 vs 0,0.7
same,Toxicity-necessitated treatment termination OR univariate,[2]; Baseline ECOG 3 vs 0,8.0
same,Diarrhea OR univariate,[2]; Female vs Male,1.2
same,Leucopenia OR univariate,[2]; Female vs Male,3.3
same,Neutropenia OR univariate,[2]; Female vs Male,2.8
same,Toxicity-necessitated treatment termination OR univariate,[2]; Gender (printed on the Male row),0.9
same,Diarrhea prevalence,[2]; Gender Female,5/21
same,Leucopenia prevalence,[2]; Gender Female,5/20
same,Neutropenia prevalence,[2]; Gender Female,13/20
same,Toxicity-necessitated treatment termination prevalence,[2]; Gender Female,3/21
same,Diarrhea prevalence,[2]; Gender Male,15/74
same,Leucopenia prevalence,[2]; Gender Male,6/65
same,Neutropenia prevalence,[2]; Gender Male,27/68
same,Toxicity-necessitated treatment termination prevalence,[2]; Gender Male,10/66
same,Diarrhea prevalence,[2]; Starting dose 37.5 mg,15/78
same,Leucopenia prevalence,[2]; Starting dose 37.5 mg,10/70
same,Neutropenia prevalence,[2]; Starting dose 37.5 mg,32/72
same,Toxicity-necessitated treatment termination prevalence,[2]; Starting dose 37.5 mg,8/71
same,Diarrhea prevalence,[2]; Starting dose 50 mg,3/12
same,Leucopenia prevalence,[2]; Starting dose 50 mg,1/11
same,Neutropenia prevalence,[2]; Starting dose 50 mg,7/11
same,Toxicity-necessitated treatment termination prevalence,[2]; Starting dose 50 mg,2/12
same,Diarrhea OR univariate,[2]; Starting dose 37.5 vs <37.5 mg,0.4
same,Neutropenia OR univariate,[2]; Starting dose 37.5 vs <37.5 mg,3.2
same,Toxicity-necessitated treatment termination OR univariate,[2]; Starting dose 37.5 vs <37.5 mg,0.0
same,Diarrhea OR univariate,[2]; Starting dose 50 vs <37.5 mg,0.5
same,Neutropenia OR univariate,[2]; Starting dose 50 vs <37.5 mg,7.0
same,Toxicity-necessitated treatment termination OR univariate,[2]; Starting dose 50 vs <37.5 mg,0.1
same,Diarrhea prevalence,[2]; Starting dose <37.5 mg,2/5
same,Leucopenia prevalence,[2]; Starting dose <37.5 mg,0/4
same,Neutropenia prevalence,[2]; Starting dose <37.5 mg,1/5
same,Toxicity-necessitated treatment termination prevalence,[2]; Starting dose <37.5 mg,3/4
same,Leucopenia prevalence (cases affected/total in group),"[2]; all patients (n = 85), first cycle",11/85
same,"Toxicity-necessitated treatment termination before completing the first two cycles, prevalence",[2]; all patients (n = 87),13/87
same,Neutropenia prevalence (cases affected/total in group),"[2]; all patients (n = 88), first cycle",40/88
same,Diarrhea prevalence (cases affected/total in group),"[2]; all patients (n = 95), first cycle",20/95
same,Increase of the risk of leucopenia,"[2]; both, human, in vivo",8.0 fold
same,Increase of the risk of neutropenia,"[2]; both, human, in vivo",2.7 fold
same,Leucopenia prevalence,"[2]; both, human, in vivo",8/41
same,Severe to life-threatening toxicities,"[2]; early use, initiated at 50 mg daily",frequently noted
same,Neutropenia prevalence,"[2]; human, in vivo",23/41
